Source: US20220363665A1, “QUINOLINE COMPOUNDS FOR THE TREATMENT OF AUTOIMMUNE DISEASE” (Hoffmann-La Roche Inc., priority 2019, published 2022)

Key:
[1] = target: T1, human TLR7 (Homo sapiens, UniProt Q9NYK1); experiment: HEK293-Blue-hTLR-7 cells assay (SEAP reporter, R848 stimulation); format: cell-based; details: HEK293-Blue-hTLR7 cells, R848, 20 hrs
T1 construct: host or cells: HEK293 (HEK-Blue hTLR7)
T1 sequence (Q9NYK1 27-1049): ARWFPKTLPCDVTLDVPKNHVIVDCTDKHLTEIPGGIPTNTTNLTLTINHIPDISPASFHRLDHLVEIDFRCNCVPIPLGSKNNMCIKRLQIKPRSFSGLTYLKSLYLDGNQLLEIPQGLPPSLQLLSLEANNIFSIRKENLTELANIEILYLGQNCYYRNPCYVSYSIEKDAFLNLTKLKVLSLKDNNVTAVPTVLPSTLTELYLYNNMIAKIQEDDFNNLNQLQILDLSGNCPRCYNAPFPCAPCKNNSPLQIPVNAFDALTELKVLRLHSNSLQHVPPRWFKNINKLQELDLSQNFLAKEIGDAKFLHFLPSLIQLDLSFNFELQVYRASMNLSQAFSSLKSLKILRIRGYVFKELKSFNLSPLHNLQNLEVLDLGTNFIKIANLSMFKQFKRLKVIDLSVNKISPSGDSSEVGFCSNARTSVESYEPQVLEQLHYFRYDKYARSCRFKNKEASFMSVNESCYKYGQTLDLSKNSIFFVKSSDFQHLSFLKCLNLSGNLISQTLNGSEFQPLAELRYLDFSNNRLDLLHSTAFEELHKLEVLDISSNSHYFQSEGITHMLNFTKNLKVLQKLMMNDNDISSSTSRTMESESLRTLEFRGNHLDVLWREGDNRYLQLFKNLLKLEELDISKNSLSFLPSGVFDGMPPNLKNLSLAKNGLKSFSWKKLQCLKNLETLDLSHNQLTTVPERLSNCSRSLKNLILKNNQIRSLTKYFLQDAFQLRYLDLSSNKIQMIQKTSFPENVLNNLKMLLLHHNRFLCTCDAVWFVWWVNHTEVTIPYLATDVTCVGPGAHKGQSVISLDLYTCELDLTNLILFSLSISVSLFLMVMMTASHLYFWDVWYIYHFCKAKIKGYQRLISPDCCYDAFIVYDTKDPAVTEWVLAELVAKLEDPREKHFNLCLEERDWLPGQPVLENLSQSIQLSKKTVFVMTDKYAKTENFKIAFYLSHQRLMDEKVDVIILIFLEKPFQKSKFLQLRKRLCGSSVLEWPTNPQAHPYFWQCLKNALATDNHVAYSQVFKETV
Description: The following tests were carried out in order to determine the activity of the compounds of formula (I) in HEK293-Blue-hTLR-7/8/9 cells assay.
HEK293-Blue-hTLR-7 Cells Assay:
A stable HEK293-Blue-hTLR-7 cell line was purchased from InvivoGen (Cat. #: hkb-htlr7, San Diego, Calif. USA). These cells were originally designed for studying the stimulation of human TLR7 by monitoring the activation of NF-κB. A SEAP (secreted embryonic alkaline phosphatase) reporter gene was placed under the control of the IFN-β minimal promoter fused to five NF-κB and AP-1-binding sites. The SEAP was induced by activating NF-κB and AP-1 via stimulating HEK-Blue hTLR7 cells with TLR7 ligands. Therefore the reporter expression was declined by TLR7 antagonist under the stimulation of a ligand, such as R848 (Resiquimod), for incubation of 20 hrs. The cell culture supernatant SEAP reporter activity was determined using QUANTI-Blue™ kit (Cat. #: rep-qbl, Invivogen, San Diego, Calif., USA) at a wavelength of 640 nm, a detection medium that turns purple or blue in the presence of alkaline phosphatase.
HEK293-Blue-hTLR7 cells were incubated at a density of 250,000˜450,000 cells/mL in a volume of 170 μL in a 96-well plate in Dulbecco's Modified Eagle's medium (DMEM) containing 4.5 g/L glucose, 50 U/mL penicillin, […], […], 2 mM L-glutamine, 10% (v/v) heat-inactivated fetal bovine serum with addition of 20 μL A test compound in a serial dilution in the presence of final DMSO at 1% and 10 μL of 20 uM R848 in above DMEM, perform incubation under 37° C. in a CO2 incubator for 20 hrs. Then 20 μL of the supernatant from each well was incubated with 180 μQuanti-blue substrate solution at 37° C. for 2 hrs and the absorbance was read at 620˜655 nm using a spectrophotometer. The signalling pathway that TLR7 activation leads to downstream NF-κB activation has been widely accepted, and therefore similar reporter assay was modified for evaluating TLR7 antagonist.

[2] = LYSA solubility assay; format: physicochemical; details: for solubility thermodynamic: thermodynamic from solid
Description: LYSA study is used to determine the aqueous solubility of tested compounds. Samples are prepared in duplicate from 10 mM DMSO stock solution. After evaporation of DMSO with a centrifugal vacuum evaporator, compounds are dissolved in a 0.05 M phosphate buffer (pH 6.5), stirred for one hr and shaken for two hrs. After one night, the solutions are filtered using a microtiter filter plate. Then the filtrate and its 1/10 dilution are analyzed by HPLC-UV. In addition, a four-point calibration curve is prepared from the 10 mM stock solutions and used for the solubility determination of the compounds. The results are in μg/mL. In case the percentage of sample measured in solution after evaporation divided by the calculated maximum of sample amount is bigger than 80%, the solubility is reported as bigger than this value.

[3] = 0.05 M phosphate buffer, pH 6.5, aqueous buffer
[4] = 0.05 M phosphate buffer (pH 6.5)

SMILES | IC50 [1] [nM] | solubility thermodynamic [2, 3] [µg/mL] | LYSA [2, 4] [µg/mL] | solubility thermodynamic ([2]; aqueous buffer, 0.05 M phosphate buffer (pH 6.5)) [µg/mL]
C[C@@H]1CN(c2ccc(C(F)(F)F)c3ncccc23)C[C@H](C(=O)N[C@@H]2CNC[C@@H]2F)O1 (single isomer, unassigned) [Example 2A] | 41 | > 580 |  | 
C[C@@H]1CN(c2ccc(C(F)(F)F)c3ncccc23)C[C@H](C(=O)N[C@H]2CNC[C@H]2F)O1 (single isomer, unassigned) [Example 2B] | 15 | > 625 |  | 
C[C@@H]1CN(c2ccc(C(F)(F)F)c3ncccc23)C[C@H](C(=O)NC2CC3CCCC(C2)N3)O1 (single isomer, unassigned) [Example 34A] | 4 | > 620 |  | 
C[C@@H]1CN(c2ccc(C(F)(F)F)c3ncccc23)C[C@H](C(=O)NC2CC3CCCC(C2)N3)O1 (single isomer, unassigned) [Example 34B] | 7 |  | >610.0 | 
CC(NC(=O)[C@H]1CN(c2ccc(C(F)(F)F)c3ncccc23)C[C@@H](C)O1)C1CN(C)CCO1 (single isomer, unassigned) [Example 35A] | 28 | > 600 |  | 
CC(NC(=O)[C@H]1CN(c2ccc(C(F)(F)F)c3ncccc23)C[C@@H](C)O1)C1CN(C)CCO1 (single isomer, unassigned) [Example 35B] | 65 |  | >625.0 | 
C[C@@H]1CN(c2ccc(C(F)(F)F)c3ncccc23)C[C@H](C(=O)NC2C3CNCC2COC3)O1 (single isomer, unassigned) [Example 46A] | 8 | > 650 |  | 
C[C@@H]1CN(c2ccc(C(F)(F)F)c3ncccc23)C[C@H](C(=O)NC2C3CNCC2COC3)O1 (single isomer, unassigned) [Example 46B] | 21 |  | >667.0 | 
C[C@@H]1CN(c2ccc(C(F)(F)F)c3ncccc23)C[C@H](C(=O)NC2CC3CCC(C2)N3)O1 (single isomer, unassigned) [Example 47A] | < 3 | > 620 |  | 
C[C@@H]1CN(c2ccc(C(F)(F)F)c3ncccc23)C[C@H](C(=O)NC2CC3CCC(C2)N3)O1 (single isomer, unassigned) [Example 47B] | < 3 |  | >605.0 | 
C[C@@H]1CN(c2ccc(C(F)(F)F)c3ncccc23)C[C@H](C(=O)NC2CC3CNCC32)O1 (single isomer, unassigned) [Example 49A] | 25 | > 660 |  | 
C[C@@H]1CN(c2ccc(C(F)(F)F)c3ncccc23)C[C@H](C(=O)NC2CC3CNCC32)O1 (single isomer, unassigned) [Example 49B] | 20 |  | >690.0 | 
C[C@@H]1CN(c2ccc(C(F)(F)F)c3ncccc23)C[C@H](C(=O)NC2CC3CNCC32)O1 (single isomer, unassigned) [Example 49C] | 8 |  | >710.0 | 
C[C@H]1C[C@@H](N)CN(c2ccc(C(F)(F)F)c3ncccc23)C1 [Example 1, (3R,5S)-5-methyl-1-[8-(trifluoromethyl)-5-quinolyl]piperidin-3-amine] | 5 |  |  | 
C[C@@H]1CN(c2ccc(C(F)(F)F)c3ncccc23)C[C@H](C(=O)NC2CNC[C@@H]2F)O1 (stereo partly drawn) [Example 2, cis-(2R,6R)-N-(4-fluoropyrrolidin-3-yl)-6-methyl-4-[8-(trifluoromethyl)-5-quinolyl]morpholine-2-carboxamide] | 52 | > 585 |  | 
C[C@@H]1CN(c2ccc(C(F)(F)F)c3ncccc23)C[C@H](C(=O)NCC2CN(C)CCO2)O1 (stereo partly drawn) [Example 3, (2R,6R)-6-methyl-N-[(4-methylmorpholin-2-yl)methyl]-4-[8-(trifluoromethyl)-5-quinolyl]morpholine-2-carboxamide] | 12 | > 690 |  | 
C[C@@H]1CN(c2ccc(C(F)(F)F)c3ncccc23)C[C@H](C(=O)NCC2CCCCN2C)O1 (stereo partly drawn) [Example 4, (2R,6R)-6-methyl-N-[(1-methyl-2-piperidyl)methyl]-4-[8-(trifluoromethyl)-5-quinolyl]morpholine-2-carboxamide] | 6 | > 660 |  | 
C[C@@H]1CN(c2ccc(C(F)(F)F)c3ncccc23)C[C@H](C(=O)NC2CCN(C)CC2)O1 [Example 5, (2R,6R)-6-methyl-N-(1-methyl-4-piperidyl)-4-[8-(trifluoromethyl)-5-quinolyl]morpholine-2-carboxamide] | 7 | > 655 |  | 
C[C@@H]1CN(c2ccc(C(F)(F)F)c3ncccc23)C[C@H](C(=O)NCC(C)(C)N)O1 [Example 6, (2R,6R)-N-(2-amino-2-methyl-propyl)-6-methyl-4-[8-(trifluoromethyl)-5-quinolyl]morpholine-2-carboxamide] | 31 | > 640 |  | 
C[C@@H]1CN(c2ccc(C(F)(F)F)c3ncccc23)C[C@H](C(=O)N2CC(N)C2)O1 [Example 7, (3-aminoazetidin-1-yl)-[(2R,6R)-6-methyl-4-[8-(trifluoromethyl)-5-quinolyl]morpholin-2-yl]methanone] | 63 | > 605 |  | 
C[C@@H]1CN(c2ccc(C(F)(F)F)c3ncccc23)C[C@H](C(=O)NC2CCCNCC2)O1 (stereo partly drawn) [Example 8, (2R,6R)-N-(azepan-4-yl)-6-methyl-4-[8-(trifluoromethyl)-5-quinolyl]morpholine-2-carboxamide] | 4 | > 680 |  | 
C[C@@H]1CN(c2ccc(C(F)(F)F)c3ncccc23)C[C@H](C(=O)NC2CN(C)CC23CC3)O1 (stereo partly drawn) [Example 9, (2R,6R)-6-methyl-N-(5-methyl-5-azaspiro[2.4]heptan-7-yl)-4-[8-(trifluoromethyl)-5-quinolyl]morpholine-2-carboxamide] | 14 |  |  | > 685
C[C@@H]1CN(c2ccc(C(F)(F)F)c3ncccc23)C[C@H](C(=O)N2CCC(N)C2)O1 (stereo partly drawn) [Example 10, (3-aminopyrrolidin-1-yl)-[(2R,6R)-6-methyl-4-[8-(trifluoromethyl)-5-quinolyl]morpholin-2-yl]methanone] | 360 | > 655 |  | 
C[C@@H]1CN(c2ccc(C(F)(F)F)c3ncccc23)C[C@H](C(=O)NCC2COCCN2C)O1 (stereo partly drawn) [Example 11, (2R,6R)-6-methyl-N-[(4-methylmorpholin-3-yl)methyl]-4-[8-(trifluoromethyl)-5-quinolyl]morpholine-2-carboxamide] | 51 | > 740 |  | 
Cc1ccc(N2C[C@@H](C)C[C@@H](N)C2)c2cccnc12 [Example 15, (3R,5S)-5-methyl-1-(8-methyl-5-quinolyl)piperidin-3-amine] | 30 |  |  | 
